Experimental data as given in ChEMBL document CHEMBL1201862, “PubChem BioAssay data set” (2004).
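Growth conditions: 96-well plates. Treatment: test compound, 48 hours, 5 concentrations. Analysis: linear interpolation between bracketing concentrations; unreached endpoints set to highest concentration. GI50 is the concentration that inhibits growth by half.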 Calls of active or inactive are those of the source. Cut-off read from the data, not from the text of the source: active = GI50 up to about 1.1 µM and inactive = higher.

What was measured:
Assay in all cases: NCI anticancer screen, dose series, 48 h
UACC-62 = tested on: UACC-62
SR = tested on: SR
OVCAR-3 = tested on: OVCAR-3
NCI-H460 = tested on: NCI-H460
SK-OV-3 = tested on: SK-OV-3
OVCAR-5 = tested on: OVCAR-5
PC-3 = tested on: PC-3
MDA-MB-231 = tested on: MDA-MB-231
MCF7 = tested on: MCF7
COLO 205 = tested on: COLO 205
UACC-257 = tested on: UACC-257
OVCAR-8 = tested on: OVCAR-8
786-0 = tested on: 786-0
DU-145 = tested on: DU-145
OVCAR-4 = tested on: OVCAR-4
A549 = tested on: A549
HL-60 = tested on: HL-60
MDA-MB-435 = tested on: MDA-MB-435

Compound	GI50 (UACC-62)	GI50 (SR)	GI50 (OVCAR-3)	GI50 (NCI-H460)	GI50 (SK-OV-3)	GI50 (OVCAR-5)	GI50 (PC-3)	GI50 (MDA-MB-231)	GI50 (MCF7)	GI50 (COLO 205)	GI50 (UACC-257)	GI50 (OVCAR-8)	GI50 (786-0)	GI50 (DU-145)	GI50 (OVCAR-4)	GI50 (A549)	GI50 (HL-60)	GI50 (MDA-MB-435)
Cc1ccc(S(=O)(=O)NC(=O)NC2=NC(C)(C)N(c3ccc(Cl)c(Cl)c3)C(N)=N2)cc1	7.59 µM (inactive)	8.75 µM (inactive)	> 100 µM (inactive)	36 µM (inactive)	> 100 µM (inactive)	> 100 µM (inactive)	0.552 µM (active)	7.98 µM (inactive)	25.8 µM (inactive)	10.2 µM (inactive)	36 µM (inactive)	9.89 µM (inactive)	8.3 µM (inactive)	64.4 µM (inactive)	> 100 µM (inactive)	2.92 µM (inactive)	29.5 µM (inactive)	–
CN(CCCNC(=O)c1cn(C)c2c1ccc1ccccc12)CCCNC(=O)c1cn(C)c2c1ccc1ccccc12	2.06 µM (inactive)	–	1.51 µM (inactive)	1.51 µM (inactive)	–	–	1.51 µM (inactive)	–	–	1.75 µM (inactive)	1.58 µM (inactive)	–	1.87 µM (inactive)	1.55 µM (inactive)	9.35 µM (inactive)	1.35 µM (inactive)	–	2.06 µM (inactive)
CC(C)C(=O)[C@@]1(C)SC[C@H]2CCN=C21	41.4 µM (inactive)	56.8 µM (inactive)	> 100 µM (inactive)	> 100 µM (inactive)	> 100 µM (inactive)	> 100 µM (inactive)	–	–	> 100 µM (inactive)	> 100 µM (inactive)	> 100 µM (inactive)	> 100 µM (inactive)	> 100 µM (inactive)	> 100 µM (inactive)	74.6 µM (inactive)	> 100 µM (inactive)	> 100 µM (inactive)	25.1 µM (inactive)
Cc1ccc([S+]([O-])c2cccs2)cc1 (stereo not given)	–	> 100 µM (inactive)	> 100 µM (inactive)	> 100 µM (inactive)	–	> 100 µM (inactive)	> 100 µM (inactive)	–	> 100 µM (inactive)	> 100 µM (inactive)	> 100 µM (inactive)	> 100 µM (inactive)	> 100 µM (inactive)	> 100 µM (inactive)	–	> 100 µM (inactive)	> 100 µM (inactive)	> 100 µM (inactive)
CCN(CC)CCCNc1nc(=O)[nH]c(C)c1C(=O)Nc1c2ccccc2nc2ccccc12	6.32 µM (inactive)	–	6.14 µM (inactive)	–	10.8 µM (inactive)	36.2 µM (inactive)	17.1 µM (inactive)	12.9 µM (inactive)	7.78 µM (inactive)	8.79 µM (inactive)	15.6 µM (inactive)	21.7 µM (inactive)	11.3 µM (inactive)	12.8 µM (inactive)	3.96 µM (inactive)	4.45 µM (inactive)	5.01 µM (inactive)	5.21 µM (inactive)
O=C1CN(c2cccc(C(F)(F)F)c2)C(=O)CN1CCN1CC(=O)N(c2cccc(C(F)(F)F)c2)CC1=O	–	> 100 µM (inactive)	–	> 100 µM (inactive)	> 100 µM (inactive)	> 100 µM (inactive)	> 100 µM (inactive)	> 100 µM (inactive)	> 100 µM (inactive)	> 100 µM (inactive)	> 100 µM (inactive)	> 100 µM (inactive)	> 100 µM (inactive)	–	> 100 µM (inactive)	> 100 µM (inactive)	> 100 µM (inactive)	> 100 µM (inactive)
O=c1[nH]ncc2[nH]c3c4ccccc4ccc3c12	–	31.3 µM (inactive)	29.6 µM (inactive)	32.1 µM (inactive)	31.1 µM (inactive)	39.9 µM (inactive)	39.2 µM (inactive)	–	18.4 µM (inactive)	24.2 µM (inactive)	–	51.3 µM (inactive)	61.7 µM (inactive)	> 100 µM (inactive)	44.5 µM (inactive)	22.2 µM (inactive)	80.7 µM (inactive)	18 µM (inactive)
O=C(OCc1ccccc1)N1CCN(C(=O)OCc2ccccc2)CCN(C(=O)OCc2ccccc2)CCN(C(=O)OCc2ccccc2)CCN(C(=O)OCc2ccccc2)CC1	> 100 µM (inactive)	–	> 100 µM (inactive)	> 100 µM (inactive)	> 100 µM (inactive)	> 100 µM (inactive)	> 100 µM (inactive)	39.5 µM (inactive)	> 100 µM (inactive)	31.1 µM (inactive)	26.7 µM (inactive)	> 100 µM (inactive)	16.8 µM (inactive)	> 100 µM (inactive)	57.4 µM (inactive)	> 100 µM (inactive)	–	> 100 µM (inactive)
O=C(Nc1cnc(O)nc1O)C(Cl)Cl	> 100 µM (inactive)	–	> 100 µM (inactive)	–	> 100 µM (inactive)	–	> 100 µM (inactive)	> 100 µM (inactive)	> 100 µM (inactive)	> 100 µM (inactive)	> 100 µM (inactive)	> 100 µM (inactive)	> 100 µM (inactive)	> 100 µM (inactive)	> 100 µM (inactive)	> 100 µM (inactive)	> 100 µM (inactive)	> 100 µM (inactive)
